Laboratory results from patent US12459951B2, “Compounds that interact with RAS superfamily proteins for treatment of cancers, inflammatory diseases, rasopathies, and fibrotic disease” (SHY Therapeutics, LLC, priority 2022, dated 2025).
Like-named read-outs stand apart in the source and are kept apart here.

Assays:
[1] = system: MiaPaca-2 (expressing KRAS G12C mutant); test: Proliferation Assay (Cell Viability Assay); assay type: cell-based; conditions: Homo sapiens, MIA PaCa-2
Method in brief: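 MiaPaca-2 cells (KRAS G12C) were grown in DMEM-high glucose with 10% FBS, seeded at 2000–5000 cells/well and cultured overnight. Compounds were added at 10 μM final, or as serial dilutions for IC50, in 0.3% DMSO/10% FBS for 2–4 days at 37 °C, 5% CO2. Viability was measured with CellTiter 96 Aqueous One and % inhibition calculated.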

MAPK p38 phosphorylation = test: MAPK p38 Activation Assay (western blot), Panc-1; assay type: cell-based, human; conditions: at 10 μM, Panc-1 pancreatic cancer cell line; starred symbols = activation
Protocol: Protocol for MAPK p38 Activation Assay
This assay is referred to as the “MAPK p38 Activation Assay” throughout this application.
Cell lines: Human tumor-derived pancreatic cancer cell line Panc-1 (expressing KRas G12D mutant) was purchased from American Type Culture Collection and grown in complete DMEM-High Glucose medium, supplemented with penicillin (100 U/mL), streptomycin (100 μg/mL), and 10% heat-inactivated FBS at 37° C. in a humidified incubator with 5% CO2.
Method 1: Cells were plated at 350000 cells/well density in a 12-well plate, allowed 3 hours to adhere to the plate, then starved in the appropriate medium in the presence of 0.5% FBS overnight. The small molecules to be tested were added to the cells in the final concentration of 10 μM in the presence of 0.3% DMSO for 6 hours incubation at 37° C. For IC50 value determination, serial dilutions of compounds were added to cells under the same conditions. Next, cells were stimulated with 1.5 ng/ml EGF for 15 minutes then cells were lysed with lysis buffer containing 1% Triton X-100, EDTA, and Halt™ Protease & Phosphatase Inhibitor Cocktail (Thermo Scientific). Protein concentration was assessed by BCA protein assay (Thermo Scientific). Phosphorylation level of MAPK p38 was determined by western blot.
Method 2: Cells were plated at 350000 cells/well density in a 12-well plate in 10% FBS. The next day small molecules to be tested were added to the cells in the final concentration of 10 μM in the presence of 0.3% DMSO for 6 hours incubation at 37° C. For IC50 value determination, serial dilutions of compounds were added to cells under the same conditions. Next, cells were lysed with lysis buffer containing 1% Triton X-100, EDTA, and Halt™ Protease & Phosphatase Inhibitor Cocktail (Thermo Scientific). Protein concentration was assessed by BCA protein assay (Thermo Scientific). Phosphorylation level of MAPK p38 was determined by western blot.
Western blot protocol: Equal amounts of protein (15-50 μg) were separated by SDS-PAGE and transferred to nitrocellulose membranes (Invitrogen by Thermo Fisher Scientific). The membrane was stained with Ponceau S Stain (Boston BioProducts) to verify uniform protein loading. Membranes were blocked with 10% milk and phosphorylation levels of MAPK p38 were assessed by incubating overnight at 4° C. with the following antibody: Phospho-p38 MAPK (Thr180/Tyr182), from Cell Signaling Technology. Then the membranes were incubated with HRP-conjugated secondary antibody (Jackson Immunoresearch, West Grove, PA). Bands were incubated in Amersham ECL Prime Western Blotting Detection Reagent (GE Healthcare) and visualized using the ChemiDoc MP imaging system (Bio-Rad).

[2] = read-out: Proliferation in MiaPaca-2: IC50
[3] = Proliferation assay, MiaPaca-2, read-out: MiaPaca-2 IC50 (nM) Pancreatic

Row | IC50 [1, 2] [nM] | IC50 [1, 3] [nM] | SMILES | % inh of MAPK p38 in Panc-1 (MAPK p38 phosphorylation)
1 | > 1000 |  | COCC1CCN(c2nc(-c3ccccn3)nn3cc(-c4ccn(C(C)C)n4)c(C)c23)C1 (racemic) [Compound 10, rac 6-(1-Isopropyl-1H-pyrazol-3-yl)-4-(3-(methoxymethyl)pyrrolidin-1-yl)-5-methyl-2-(pyridin-2-yl)pyrrolo[2,1-f][1,2,4]triazine] | G* (G* = 75-99% activation)
2 | > 1000 |  | COC[C@@H]1CC[C@@H]1CNc1nc(-c2ccccn2)nn2cc(-c3ccn(C(C)C)n3)c(C)c12 (racemic) [Compound 11, rac 6-(1-Isopropyl-1H-pyrazol-3-yl)-N-(((1S,2R)-2-(methoxymethyl)cyclobutyl)methyl)-5-methyl-2-(pyridin-2-yl)pyrrolo[2,1-f][1,2,4]triazin-4-amine] | G* (G* = 75-99% activation)
3 | > 1000 |  | COC1CCCN(c2nc(-c3ccccn3)nn3cc(-c4ccn(C(C)C)n4)c(C)c23)C1 (racemic) [Compound 12, rac 6-(1-Isopropyl-1H-pyrazol-3-yl)-4-(3-methoxypiperidin-1-yl)-5-methyl-2-(pyridin-2-yl)pyrrolo[2,1-f][1,2,4]triazine] | H* (H* ≥ 100% activation)
4 | > 1000 |  | CO[C@@H]1C[C@H]1Nc1nc(-c2nccn2C)nn2cc(-c3cccnc3)c(-c3ccccc3)c12 (racemic) [Compound 190, N-((1R,2R)-2-Methoxycyclopropyl)-2-(1-methyl-1H-imidazol-2-yl)-5-phenyl-6-(pyridin-3-yl)pyrrolo[2,1-f][1,2,4]triazin-4-amine] | E (E = 1-30% inhibition)
5 | > 1000 |  | CO[C@H]1CC[C@@H](Nc2nc(-c3nccn3C)nn3cc(-c4cccnc4)c(-c4ccccc4)c23)C1 (racemic) [Compound 193, rac N-((1R,3S)-3-Methoxycyclopentyl)-2-(1-methyl-1H-imidazol-2-yl)-5-phenyl-6-(pyridin-3-yl)pyrrolo[2,1-f][1,2,4]triazin-4-amine] | E (E = 1-30% inhibition)
6 | > 1000 |  | CO[C@H]1CC[C@H](Nc2nc(-c3nccn3C)nn3cc(-c4cccnc4)c(-c4ccccc4)c23)C1 (racemic) [Compound 194, rac N-((1S,3S)-3-Methoxycyclopentyl)-2-(1-methyl-1H-imidazol-2-yl)-5-phenyl-6-(pyridin-3-yl)pyrrolo[2,1-f][1,2,4]triazin-4-amine] | E (E = 1-30% inhibition)
7 | 150 to 500 |  | CCOc1ccc(Nc2nc(-c3nccn3C)nn3cc(-c4ccn(C)n4)c(C)c23)nc1 [Compound 229, N-(5-Ethoxypyridin-2-yl)-5-methyl-2-(1-methyl-1H-imidazol-2-yl)-6-(1-methyl-1H-pyrazol-3-yl)pyrrolo[2,1-f][1,2,4]triazin-4-amine] | 
8 | < 150 |  | Cc1c(-c2ccn(C)n2)cn2nc(-c3nccn3C)nc(Nc3ccc(OCC(F)(F)F)cn3)c12 [Compound 230, 5-Methyl-2-(1-methyl-1H-imidazol-2-yl)-6-(1-methyl-1H-pyrazol-3-yl)-N-(5-(2,2,2-trifluoroethoxy)pyridin-2-yl)pyrrolo[2,1-f][1,2,4]triazin-4-amine] | 
9 | < 150 |  | Cc1c(-c2ccn(C)n2)cn2nc(-c3nccn3C)nc(Nc3ccc(OC(F)F)cn3)c12 [Compound 231, N-(5-(Difluorometh-oxy)pyridin-2-yl)-5-methyl-2-(1-methyl-1H-imidazol-2-yl)-6-(1-methyl-1H-pyrazol-3-yl)pyrrolo[2,1-f][1,2,4]triazin-4-amine] | 
10 | < 150 |  | Cc1c(-c2ccn(C)n2)cn2nc(-c3nccn3C)nc(Nc3ccc(OC(F)(F)F)cn3)c12 [Compound 232, 5-Methyl-2-(1-methyl-1H-imidazol-2-yl)-6-(1-methyl-1H-pyrazol-3-yl)-N-(5-(trifluoro-methoxy)pyridin-2-yl)pyrrolo[2,1-f][1,2,4]triazin-4-amine] | 
11 | < 150 |  | Cc1c(-c2ccn(C)n2)cn2nc(-c3nccn3C)nc(Nc3ccc(C(F)(F)F)cn3)c12 [Compound 233, 5-Methyl-2-(1-methyl-1H-imidazol-2-yl)-6-(1-methyl-1H-pyrazol-3-yl)-N-(5-(trifluoromethyl)pyridin-2-yl)pyrrolo[2,1-f][1,2,4]triazin-4-amine] | 
12 | < 150 |  | Cc1c(-c2ccn(C)n2)cn2nc(-c3nccn3C)nc(Nc3ccc(C(F)F)cn3)c12 [Compound 234, N-(5-(Difluoromethyl)pyridin-2-yl)-5-methyl-2-(1-methyl-1H-imidazol-2-yl)-6-(1-methyl-1H-pyrazol-3-yl)pyrrolo[2,1-f][1,2,4]triazin-4-amine] | 
13 | < 150 | 1 to 10 | COc1cc(Nc2nc(-c3nccn3C)nn3cc(-c4ccn(C)n4)c(C)c23)ncc1C [Compound 235, N-(4-Methoxy-5-methylpyridin-2-yl)-5-methyl-2-(1-methyl-1H-imidazol-2-yl)-6-(1-methyl-1H-pyrazol-3-yl)pyrrolo[2,1-f][1,2,4]triazin-4-amine] | 
14 | 150 to 500 |  | COc1cnc(Nc2nc(-c3nccn3C)nn3cc(-c4ccn(C)n4)c(C)c23)cc1C [Compound 236, N-(5-Methoxy-4-methylpyridin-2-yl)-5-methyl-2-(1-methyl-1H-imidazol-2-yl)-6-(1-methyl-1H-pyrazol-3-yl)pyrrolo[2,1-f][1,2,4]triazin-4-amine] | 
15 | < 150 |  | COc1cc(Nc2nc(-c3nccn3C)nn3cc(-c4ccn(C)n4)c(C)c23)ncc1F [Compound 237, N-(5-Fluoro-4-methoxypyridin-2-yl)-5-methyl-2-(1-methyl-1H-imidazol-2-yl)-6-(1-methyl-1H-pyrazol-3-yl)pyrrolo[2,1-f][1,2,4]triazin-4-amine] | 
16 | < 150 | 1 to 10 | COc1cc(Nc2nc(-c3nccn3C)nn3cc(-c4ccn(C)n4)c(C)c23)ncc1C1CC1 [Compound 238, N-(5-Cyclopropyl-4-methoxypyridin-2-yl)-5-methyl-2-(1-methyl-1H-imidazol-2-yl)-6-(1-methyl-1H-pyrazol-3-yl)pyrrolo[2,1-f][1,2,4]triazin-4-amine] | 
17 | < 150 |  | Cc1cnc2c(c1)CCN2c1nc(-c2nccn2C)nn2cc(-c3ccn(C)n3)c(C)c12 [Compound 239, 5-Methyl-2-(1-methyl-1H-imidazol-2-yl)-6-(1-methyl-1H-pyrazol-3-yl)-4-(5-methyl-2,3-dihydro-1H-pyrrolo[2,3-b]pyridin-1-yl)pyrrolo[2,1-f][1,2,4]triazine] | 
18 | < 150 |  | Cc1c(-c2ccn(C)n2)cn2nc(-c3nccn3C)nc(Nc3cc(C(C)(C)O)ccn3)c12 [Compound 240, 2-(2-((5-Methyl-2-(1-methyl-1H-imidazol-2-yl)-6-(1-methyl-1H-pyrazol-3-yl)pyrrolo[2,1-f][1,2,4]triazin-4-yl)amino)pyridin-4-yl)propan-2-ol] | 
19 | > 1000 |  | Cc1c(-c2ccn(C)n2)cn2nc(-c3nccn3C)nc(Nc3ccc(C(C)(C)O)cn3)c12 [Compound 241, 2-(6-((5-Methyl-2-(1-methyl-1H-imidazol-2-yl)-6-(1-methyl-1H-pyrazol-3-yl)pyrrolo[2,1-f][1,2,4]triazin-4-yl)amino)pyridin-3-yl)propan-2-ol] | 
20 | > 1000 |  | Cc1c(-c2ccn(C)n2)cn2nc(-c3nccn3C)nc(Nc3ccc(-n4ccnc4)cn3)c12 [Compound 242, N-(5-(1H-Imidazol-1-yl)pyridin-2-yl)-5-methyl-2-(1-methyl-1H-imidazol-2-yl)-6-(1-methyl-1H-pyrazol-3-yl)pyrrolo[2,1-f][1,2,4]triazin-4-amine] | 
21 | < 150 |  | Cc1c(-c2ccn(C)n2)cn2nc(-c3nccn3C)nc(Nc3ccc(-n4ccnc4C)cn3)c12 [Compound 243, 5-Methyl-N-(5-(2-methyl-1H-imidazol-1-yl)pyridin-2-yl)-2-(1-methyl-1H-imidazol-2-yl)-6-(1-methyl-1H-pyrazol-3-yl)pyrrolo[2,1-f][1,2,4]triazin-4-amine] | 
